Results reported in US20260315499A1, “2'- {HETEROCYCLYL (ARYL/ALKYL) METHYL} - CANNABIDIOL COMPOUNDS AND PROCESS FOR PREPARATION THEREOF” (COUNCIL OF SCIENTIFIC & INDUSTRIAL RESEARCH, priority 2023, published 2026).

How the values were obtained:
[1] = Cell viability assay in differentiated neuronal cells (MTT), SHSY5Y; format: cell-based; conditions: human, read-out: % Cell viability ± SD, SHSY5Y
Source text: (§1) In the present disclosure outlined herein, a focused library of cannabidiol analogues were studied for possible neuro-protective potential employing cell line-based stress model systems which mimic the biological stress conditions in vitro (J Cell Biochem., 2018, 119(8), 6482-6491).
(§2) Human neuroblastoma cells (SHSY5Y) and mouse neuroblastoma cells (N2A) were procured from American Type Culture Collection (ATCC). SHSY5Y cell cultures were maintained in DMEM F12 (Invitrogen) whereas N2A were cultured in DMEM (Invitrogen) with 10% Fetal Bovine Serum (Gibco) medium, subjected to differentiation to acquire neuronal morphology (employing differentiation media DMEM-F12, 3-5% FBS, (For differentiation, low concentration of FBS was used) and 50 μM retinoic acid). Differentiated cells were later seeded into 96 well plates, at a density of 1×10^4 before being incubated for 48 hrs with the synthesized library. The exhausted culture media was substituted with new culture media containing 0.5 mg/ml MTT dye. Eventually, the OD at 490 nm excitation was measured using a 96-well plate reader. The proportion of viable cells was determined as percentage of absorbance of untreated cultures relative to control.

[2] = Cell viability assay in differentiated neuronal cells (MTT), N2A; format: cell-based; conditions: mouse, read-out: % Cell viability ± SD, N2A
Source text: as §1, §2

[3] = Cell viability assay in macrophage RAW264.7 cells (MTT); format: cell-based; conditions: mouse, read-out: % cell viability ± SD; for viability at 24 h, 5 µM: RAW264.7, 5 μM; for viability at 24 h, 10 µM: RAW264.7, 10 μM
Procedure: RAW264.7 cells were seeded in 96-well cell culture plates at a density of 1×10^4 cells per well and incubated overnight at 37° C. with 5% CO2. Next day, the cells were treated with CBD or its derivatives at 5 μM and/or 10 μM concentration for 24 hrs. The MTT dye (2.5 mg/ml, 20 μL) was added to each well 4 hrs before termination (Molecules. 2022, 27, 8068). After 4 hrs of incubation with MTT, the supernatant was discarded, and the formazan crystals were dissolved by adding 100 μL DMSO. The absorbance was recorded at 540 nm on microplate reader (Tecan Infinite Pro).

[4] = system: nitric oxide (NO) production in RAW264.7 macrophages; assay: In vitro anti-inflammatory activity: nitric oxide production (Griess) in LPS-exposed RAW264.7 macrophages; format: cell-based, mouse; conditions: for inhibition at 5 µM / inhibition at 10 µM: Mus musculus, RAW264.7, read-out: % NO Inhibition ± SD; for inhibition at 5 µM / inhibition at 10 µM / % NO inhibition: LPS 24 hrs; for % NO inhibition: concentration not given
Procedure: Measurement of Nitric oxide: RAW264.7 macrophages were seeded in 96-well plates with a density of 0.5×10^5 cells/well and incubated overnight at 37° C. in a 5% CO2 atmosphere. The cells were treated with different concentration of CBD and its analogues and exposed to LPS for 24 hrs. For nitric oxide (NO) determination, the cell culture supernatant was taken and mixed with equal volume of Griess reagent in another 96 well plate at room temperature (Biomed Pharmacother., 2017, 92, 175-186). The absorbance was measured at 540 nm. The final calculations were determined on a NaNO2 standard curve.

Compound | viability at 48 h, 20 µM [1] [%] | viability at 48 h, 20 µM [2] [%] | viability at 24 h, 5 µM [3] [%] | viability at 24 h, 10 µM [3] [%] | inhibition at 5 µM [4] [%] | inhibition at 10 µM [4] [%] | % NO inhibition [4] | % NO Inhibition ± SD ([4]; LPS alone 1 μg/ml (0% reference)) [%]
C=C(C)[C@@H]1CCC(C)=C[C@H]1c1c(O)c(CN2CCOCC2)c(CCCCC)c(CN2CCOCC2)c1O [A1′, 2′,4′-{bis-(morpholin-1-ylmethyl)}-cannabidiol] | 93.6 ± 2.01 | 94.7 ± 1.86 | 94.4 ± 0.9 | 92.4 ± 1.2 | 15.6 ± 2.5 | 23.4 ± 3.8 | greater than 20% | 
C=C(C)[C@@H]1CCC(C)=C[C@H]1c1c(O)cc(CCCCC)c(CN2CCCCC2)c1O [A2, 2′-(piperidin-1-ylmethyl)-cannabidiol] | 95.8 ± 1.1 | 96.9 ± 3.77 | 65.9 ± 6.5 | 61.7 ± 8.1 |  |  |  | 
C=C(C)[C@@H]1CCC(C)=C[C@H]1c1c(O)cc(CCCCC)c(CN2CCC(C(C)C)CC2)c1O [A3, 2′-{(4-isopropylpiperidin-1-yl)methyl}-cannabidiol] | 103 ± 2.25 | 99.7 ± 0.42 | 92.8 ± 0.9 | 89.9 ± 1.2 | 4.9 ± 1.4 | 10.7 ± 2.1 |  | 
C=C(C)[C@@H]1CCC(C)=C[C@H]1c1c(O)cc(CCCCC)c(CN2CCC(O)CC2)c1O [A4, 2′-{(4-hydroxypiperidin-1-yl)methyl}-cannabidiol] | 97.28 ± 0.54 | 97.71 ± 0.81 | 93.8 ± 1.14 | 90.6 ± 0.7 | 11.4 ± 2.9 | 20.8 ± 2.5 | greater than 20% | 
C=C(C)[C@@H]1CCC(C)=C[C@H]1c1c(O)cc(CCCCC)c(CN2CCC(c3ccccc3)CC2)c1O [A5, 2′-{(4-phenylpiperidin-1-yl)methyl}-cannabidiol] | 94.5 ± 1.12 | 90.6 ± 1.85 | 94.4 ± 1.3 | 90.4 ± 0.9 | 5.8 ± 2.4 | 12.3 ± 3.1 |  | 
C=C(C)[C@@H]1CCC(C)=C[C@H]1c1c(O)cc(CCCCC)c(CN2CCC(C(F)(F)F)CC2)c1O [A6, 2′-[{4-(trifluoromethyl)piperidin-1-yl}methyl]-cannabidiol] | 27 ± 2.02 | 25.3 ± 1.47 | 94.1 ± 1.8 | 92 ± 1.1 | 7.6 ± 3 | 11.8 ± 1.9 |  | 
C=C(C)[C@@H]1CCC(C)=C[C@H]1c1c(O)cc(CCCCC)c(CN2CCC(Cc3ccccc3)CC2)c1O [A7, 2′-{(4-benzylpiperidin-1-yl)methyl}-cannabidiol] | 102 ± 1.57 | 101.7 ± 0.47 | 90.1 ± 1.3 | 93 ± 1.7 | 8.4 ± 3.1 | 16 ± 1.2 |  | 
C=C(C)[C@@H]1CCC(C)=C[C@H]1c1c(O)cc(CCCCC)c(CN2CCN(C)CC2)c1O [A8, 2′-{(4-methylpiperazin-1-yl)methyl}-cannabidiol] | 89.4 ± 1.7 | 93.3 ± 0.39 | 94.7 ± 2.7 | 87.1 ± 1.9 | 10.7 ± 2.3 | 19.6 ± 3.2 |  | 
C=C(C)[C@@H]1CCC(C)=C[C@H]1c1c(O)cc(CCCCC)c(CN2CCN(CC)CC2)c1O [A9, 2′-{(4-ethylpiperazin-1-yl)methyl}-cannabidiol] | 91.67 ± 0.56 | 94.3 ± 1.3 | 94.2 ± 2.1 | 87.6 ± 0.1 | 14.6 ± 3.3 | 27.9 ± 0.4 | more than 25% | 
C=C(C)[C@@H]1CCC(C)=C[C@H]1c1c(O)cc(CCCCC)c(CN2CCN(CCO)CC2)c1O [A10, 2′-[{4-(2-hydroxyethyl)piperazin-1-yl}methyl]-cannabidiol] | 98.1 ± 2.25 | 96 ± 2.17 | 97.5 ± 1.7 | 95 ± 2.6 | 48.9 | 68.3 |  | 
C=C(C)[C@@H]1CCC(C)=C[C@H]1c1c(O)cc(CCCCC)c(CN2CCN(C(C)=O)CC2)c1O [A11, 2′-[{4-(piperazin-1-yl)ethan-1-one}methyl]-cannabidiol] | 101 ± 3.48 | 102 ± 1.53 | 93.3 ± 0.4 | 91.6 ± 0.2 | 15.6 ± 1.7 | 31.4 ± 3.6 | more than 25% | 
C=C(C)[C@@H]1CCC(C)=C[C@H]1c1c(O)cc(CCCCC)c(CN2CCN(c3ccccc3)CC2)c1O [A12, 2′-{(4-phenylpiperazin-1-yl)methyl}-cannabidiol] | 95.9 ± 3.39 | 96.2 ± 2.32 | 94.5 ± 1 | 92.7 ± 0.5 | 8.6 ± 0.93 | 11.4 ± 3.5 |  | 
C=C(C)[C@@H]1CCC(C)=C[C@H]1c1c(O)cc(CCCCC)c(CN2CCN(C3CC3)CC2)c1O [A13, 2′-{(4-cyclopropylpiperazin-1-yl)methyl}-cannabidiol] | 96.2 ± 4.87 | 97.2 ± 3.51 | 89.3 ± 2 | 93.9 ± 4.3 | 12 ± 1.7 | 27.3 ± 2.6 | more than 25% | 
C=C(C)[C@@H]1CCC(C)=C[C@H]1c1c(O)cc(CCCCC)c(CN2CCN(c3ccc(Cl)cc3)CC2)c1O [A14, 2′-[{4-(4-chlorophenyl)piperazine}methyl]-cannabidiol] | 90.5 ± 0.14 | 95.9 ± 4.04 | 95.2 ± 0.7 | 89.8 ± 1.1 | 8.5 ± 1.7 | 14.2 ± 3.8 |  | 
C=C(C)[C@@H]1CCC(C)=C[C@H]1c1c(O)cc(CCCCC)c(CN2CCN(c3ncccn3)CC2)c1O [A15, 2′-[{4-(pyrimidin-2-yl)piperazin-1-yl}methyl]-cannabidiol] | 81.8 ± 1.17 | 85.2 ± 1.25 | 93.4 ± 1.1 | 89.9 ± 0.9 | 4.8 ± 0.02 | 14.5 ± 0.6 |  | 
C=C(C)[C@@H]1CCC(C)=C[C@H]1c1c(O)cc(CCCCC)c(CNc2cnccn2)c1O [A16, 2′-{(pyrazin-2-ylamino)methyl}-cannabidiol] | 86.97 ± 0.12 | 89.85 ± 0.03 | 93.6 ± 1.3 | 87.7 ± 0.8 | 11.5 ± 1.2 | 18.3 ± 1 |  | 
Lipopolysaccharide [LPS, reference compound] |  |  |  |  |  |  |  | 0
